Measured values: US12195427B2, “MASP-2 inhibitors and methods of use” (priority 2018, dated 2025)
Each block holds one compound with its values, some of them ahead of it.

Molecular target: MASP-2 CCP2-SP (Homo sapiens (Human), UniProt O00187)
Test: MASP-2 co-crystallization, X-ray crystallography and structure analysis (H-bonds, van der Waals contacts);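 on Ligand-pharmacophore element distance, pharmacophore element C2: distance from averaged pharmacophore element to bound ligand; missing value means element absent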;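 on Ligand-pharmacophore element distance, pharmacophore element C3: distance from averaged pharmacophore element to bound ligand; missing value means element absent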;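 on Ligand-pharmacophore element distance, pharmacophore element C4: distance from averaged pharmacophore element to bound ligand; missing value means element absent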;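 on Ligand-pharmacophore element distance, pharmacophore element C5: distance from averaged pharmacophore element to bound ligand; missing value means element absent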
Set-up: van der Waals contact distance, MASP-2 HIS 483 atom CD2 / van der Waals contact distance, MASP-2 HIS 483 atom NE2 / van der Waals contact distance, SER 654 C to compound atom / van der Waals contact distance, SER 654 O to compound atom / van der Waals contact distance, TRP 655 C to compound atom / van der Waals contact distance, MASP-2 GLY 528 atom CA / van der Waals contact distance TRP 655 atom CZ3 / van der Waals contact distance TRP 655 atom N / van der Waals contact distance TRP 655 atom CE3 / van der Waals contact distance GLY 656 atom C / van der Waals contact distance GLY 656 atom CA / van der Waals contact distance GLY 656 atom O / van der Waals contact distance, MASP-2 TYR 607 atom CD1 / van der Waals contact distance, MASP-2 PRO 606 atom O / d(C3,CA1) / d(CA1,N1)2 / d(H4,O1) / d(H4,O2) / d(O1,O2) / d(CA1,O2) / d(CA6,O1) / d(CA6,O2) / d(CA1,C5) / d(O2,H3) / d(N2,C2) / d(CA5,N2) / d(N2,C4) / d(N2,C6) / d(N2,CA3) / d(N2,O3) / d(O4,H2): unit not given beside the values
Conditions: for Ligand-pharmacophore element distance, pharmacophore element C2 / Ligand-pharmacophore element distance, pharmacophore element C3 / Ligand-pharmacophore element distance, pharmacophore element C4 / Ligand-pharmacophore element distance, pharmacophore element C5 / Ligand-pharmacophore element distance, pharmacophore element C6 / Ligand-pharmacophore element distance, pharmacophore element C7 / Ligand-pharmacophore element distance, pharmacophore element CA1 / Ligand-pharmacophore element distance, pharmacophore element CA2 / Ligand-pharmacophore element distance, pharmacophore element CA3 / Ligand-pharmacophore element distance, pharmacophore element CA4 / Ligand-pharmacophore element distance, pharmacophore element CA5 / Ligand-pharmacophore element distance, pharmacophore element CA6: Table A4-1; for d(N2,C2) / d(N2,CA2) / d(O2,H3) / d(O2,N2): Table A5-2 pharmacophore distance, S3/S4 region; for a(O1, O2, H3) / a(O1, O2, N2) / a(O2, N2, C2) / a(O2, N2, CA2): Table A6-2 pharmacophore angle
Description: This example illustrates the preparation of recombinant MASP-2 protein, based on UniProt O00187, human mannan-binding lectin serine protease 2. Expression constructs for human MASP-2 CCP2-SP and CCP2-SP-6HIS were generated for recombinant expression in E. coli cells.
Typically, crystallization hits were obtained by screening against […] 96-well crystallization reagent kits (GRAS6, GRAS2, Hampton Research; MORPHEUS, Molecular Dimensions; Wizard 1&2 Cryo, Rigaku Reagents) and crystal growth was inspected by optical microscopy. Crystals were used directly or further optimized for X-ray diffraction. Crystals were captured with cryogenic loops and dipped into liquid nitrogen directly or cryoprotected with a 20% glycerol in crystallization formulation before flash-cooling in liquid nitrogen.
Thereafter crystals are transferred once or twice for soaking within the crystallization solution containing the MASP-2 inhibitor.
Crystals were diffracted with synchrotron X-rays of […] and X-ray diffraction datasets were collected at beamlines SSRL BL9-2, BL14-1, BL12-2 as well as ALS sector 5 using Dectris Pilatus and Eiger detectors. Structures were determined by molecular replacement using portions of the structure 1Q3X as search models and partially refined with Buster 2.10.2 or Refmac 5.8. […] When multiple ligand poses were observed, for instance arising from multiple molecules in the asymmetric unit or refined dual poses within the same molecule, only one pose was selected and analyzed.
LigPlot+ calls these ‘nonbonded contacts’ or ‘hydrophobic contacts’. Despite the name, there are atom pairings that include possible H-bonds. Thus, in some instances, the Table A2 also contains H-bond interactions.

[1] = Table A5-1 pharmacophore: distance between elements, S2/S1 region
[2] = Table A7-1, between pharmacophore elements of the bound compound
[3] = Table A8-6, nearest protein atom in cell to the left

Chain of MASP-2 CCP2-SP (O00187 445-686): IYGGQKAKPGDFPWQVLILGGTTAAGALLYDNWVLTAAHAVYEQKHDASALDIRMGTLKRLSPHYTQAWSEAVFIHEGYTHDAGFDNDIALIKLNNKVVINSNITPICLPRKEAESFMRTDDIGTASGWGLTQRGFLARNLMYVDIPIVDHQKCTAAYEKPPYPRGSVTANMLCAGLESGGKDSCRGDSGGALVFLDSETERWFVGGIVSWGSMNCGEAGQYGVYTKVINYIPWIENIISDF
Chain of MASP-2 CCP2-SP (O00187 364-432 partner): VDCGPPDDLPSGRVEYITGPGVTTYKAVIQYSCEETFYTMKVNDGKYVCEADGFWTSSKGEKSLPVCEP

H-bond distance to MASP-2 GLY 656 atom N (Table A1 (H-Bonds), GLY 656 N): 3.25 | H-bond distance to MASP-2 SER 628 atom O (Table A1 (H-Bonds), SER 628 O): 2.93 | H-bond distance to MASP-2 SER 654 atom O (Table A1 (H-Bonds), SER 654 O): 2.94 | H-bond distance to MASP-2 SER 657 atom O (Table A1 (H-Bonds), SER 657 O): 2.83 | van der Waals contact distance, MASP-2 PHE 529 atom CD1 (Table A2-3): 3.71 | van der Waals contact distance, MASP-2 amino acid atom to compound atom (Table A2-5: TYR 607 (CE1, CE2, OH), PRO 608 (CD, CG), SER 611 (CA)): 3.85 | van der Waals contact distance GLY 656 atom C (Table A2-13, MASP-2 GLY 656 C): 3.36 | van der Waals contact distance TRP 655 atom O (Table A2-13, MASP-2 TRP 655 O): 3.84 | van der Waals contact distance SER 657 atom C (Table A2-14, MASP-2 SER 657 C, columns c12-c13 (inferred)): 3.75 | Ligand-pharmacophore element distance, pharmacophore element C2: 0.48 | Ligand-pharmacophore element distance, pharmacophore element C3: 0 | Ligand-pharmacophore element distance, pharmacophore element C4: 0 | Ligand-pharmacophore element distance, pharmacophore element C5: 0 | Ligand-pharmacophore element distance, pharmacophore element C6: 0 | Ligand-pharmacophore element distance, pharmacophore element C7: 0 | Ligand-pharmacophore element distance, pharmacophore element CA1: 0.3 | Ligand-pharmacophore element distance, pharmacophore element CA2: 0.85 | Ligand-pharmacophore element distance, pharmacophore element CA3: 0 | Ligand-pharmacophore element distance, pharmacophore element CA4: 0 | Ligand-pharmacophore element distance, pharmacophore element CA5: 0 | Ligand-pharmacophore element distance, pharmacophore element CA6: 0 | d(CA1,N1) [1]: 3.56 | d(CA1,O1) [1]: 4.95 | d(CA1,O2) [1]: 3.58 | d(H4,O1) [1]: 5.37 | d(H4,O2) [1]: 3.82 | d(O1,O2) [1]: 3.31 | d(N2,C2): 1.38 | d(N2,CA2): 5.62 | d(O2,H3): 4.92 | d(O2,N2): 3.36 | a(CA1, O1, O2) (Table A6-1 pharmacophore angle): 88.32 | a(O1, O2, H4) (Table A6-1 pharmacophore angle): 142.43 | A(N1, CA1, O1) a) (Table A6-1 pharmacophore angle, all compounds with protonatable center N1 except Methyl-amino-pyridine): 167.99 | a(O1, O2, H3): 157.64 | a(O1, O2, N2): 139.49 | a(O2, N2, C2): 118.75 | a(O2, N2, CA2): 154.05 | Pharmacophore torsion angle a(H4, O1, O2, H3) [2]: 54.13 | Pharmacophore torsion angle a(H4, O1, O2, N2) [2]: 155.02 | Pharmacophore torsion angle a(N1, CA1, O2, H4) [2]: −130.71 | Pharmacophore torsion angle a(O1, H4, O2, CA1) [2]: −74.94 | Pharmacophore torsion angle a(O1, O2, N2, C2) [2]: 150.29 | Pharmacophore protein distance to MET_658 (first MET_658 column) (Table A8-6, 6th residue column, nearest protein atom in cell to the left): 1.74 | Pharmacophore protein distance to MET_658 (second MET_658 column) (Table A8-6, 9th residue column, nearest protein atom in cell to the left): 2.75 | Pharmacophore protein distance to GLY_528 [3]: 3.37 | Pharmacophore protein distance to PHE_529 [3]: 3.00 | Pharmacophore protein distance to PRO_608 [3]: 4.92 | Pharmacophore protein distance to SER_611 [3]: 3.00 | Pharmacophore protein distance to TRP_655 (Table A8-6, pharmacophore elements C6, CA3, O3, H1, nearest protein atom in cell to the left): 3.73
SMILES: C[C@H](NC(=O)C1C[C@@H](c2ccccc2)CCN1)C(=O)NCc1ccc(C(=N)N)cc1 (stereo in doubt) [compound 1063]

SMILES: C[C@H](NC(=O)[C@H]1C[C@@H](c2ccccc2)CCN1)C(=O)NCc1cc(Cl)ccc1O.Cl [1078_2]
Ligand-pharmacophore element distance, pharmacophore element C2: 0.61 | Ligand-pharmacophore element distance, pharmacophore element C3: 0 | Ligand-pharmacophore element distance, pharmacophore element C4: 0 | Ligand-pharmacophore element distance, pharmacophore element C5: 0.46 | Ligand-pharmacophore element distance, pharmacophore element C6: 0 | Ligand-pharmacophore element distance, pharmacophore element C7: 0 | Ligand-pharmacophore element distance, pharmacophore element CA1: 1.55 | Ligand-pharmacophore element distance, pharmacophore element CA2: 0.61 | Ligand-pharmacophore element distance, pharmacophore element CA3: 0 | Ligand-pharmacophore element distance, pharmacophore element CA4: 0 | Ligand-pharmacophore element distance, pharmacophore element CA5: 0 | Ligand-pharmacophore element distance, pharmacophore element CA6: 0 | d(CA1,C5) [1]: 3.12 | d(CA1,O1) [1]: 4.69 | d(CA1,O2) [1]: 4.62 | d(CA1,O4) [1]: 2.75 | d(H4,O1) [1]: 2.19 | d(H4,O2) [1]: 2.44 | d(O1,O2) [1]: 3.25 | d(O4,H2) [1]: 0.97 | d(N2,C2): 1.44 | d(N2,CA2): 5.72 | d(O2,H3): 2.53 | d(O2,N2): 2.72 | a(C5, CA1, O1) (Table A6-1 pharmacophore angle): 159.94 | a(CA1, O1, O2) (Table A6-1 pharmacophore angle): 109.26 | a(CA1, O4, H2) (Table A6-1 pharmacophore angle): 128.74 | a(O1, CA1, O4) (Table A6-1 pharmacophore angle): 65.74 | a(O1, O2, H4) (Table A6-1 pharmacophore angle): 91.16 | a(O1, O2, H3): 141.98 | a(O1, O2, N2): 146.00 | a(O2, N2, C2): 128.07 | a(O2, N2, CA2): 155.89 | Pharmacophore torsion angle a(C5, CA1, O1, H4) [2]: 38.04 | Pharmacophore torsion angle a(H4, O1, O2, H3) [2]: −132.87 | Pharmacophore torsion angle a(H4, O1, O2, N2) [2]: −119.25 | Pharmacophore torsion angle a(O1, H4, O2, CA1) [2]: −57.88 | Pharmacophore torsion angle a(O1, O2, N2, C2) [2]: 127.17 | Pharmacophore torsion angle a(O1, O2, N2, CA2) (Table A7-2, between pharmacophore elements of the bound compound): 137.47
